{"source": "patent US20100298448A1", "about": "“PENETRATION ENHANCERS FOR FUNGICIDAL AGENTS” (priority 2006, published 2010)", "details": "apple tree (Golden Delicious variety)", "description": "In this test, the penetration of active substances through enzymatically isolated cuticles of apple tree leaves was measured.\nLeaves which were cut off in the stage of full development of apple trees of the Golden Delicious variety were used. The isolation of the cuticles was effected in a manner such that • first leaf discs marked on the underside with dye and punched out were filled by means of vacuum infiltration with a pectinase solution (0.2 to 2% strength) buffered to a pH between 3 and 4, sodium azide was then added and • the leaf discs thus treated were allowed to stand until disintegration of the original leaf structure and detachment of the noncellular cuticle.\nThereafter, only those cuticles of the upper sides of the leaves which were free of staltoa and hairs were further used. They were washed several times alternately with water and a buffer solution at pH 7. The clean cuticles obtained were finally drawn onto small Teflon plates and smoothed and dried with a gentle air jet.\nIn the next step, the cuticle membranes thus obtained were placed in stainless steel diffusion cells (=transport chambers) for membrane transport investigations. For this purpose, the cuticles were placed by means of forceps centrally on the silicone grease-coated edges of the diffusion cells and closed with a likewise greased ring. The arrangement was chosen so that the morphological outside of the cuticles faced outwards, i.e. towards the air, while the original inside faced the interior of the diffusion cell. The diffusion cells were filled with water or with a mixture of water and solvent. […]\nAfter the application of the spray liquors, in each case the water was allowed to evaporate, and in each case the chambers were then turned around and were placed in thermostated trays, air having a defined temperature and atmospheric humidity being blown onto the outside of the cuticle. […] The active substance penetration was measured with radioactively marked active substance.", "data": [{"smiles": "CC(C)(C)C(O)(CCc1ccc(Cl)cc1)Cn1cncn1", "note": "(stereo not drawn) [Tebuconazole, tebuconazole]", "values": [{"measurement": "Penetration* after 5 hours [%]", "value": 2, "unit": "%"}, {"measurement": "Penetration* after 1 day [%]", "value": 8, "unit": "%"}, {"measurement": "Penetration** after 2 days [%]", "value": 15, "unit": "%"}]}]}
